# Source: patent US7109218B2, “Substituted 2-thio-3,5-dicyano-4-phenyl-6-aminopyridines and the use of the same” (Bayer HealthCare AG, priority 2001, dated 2006)
# Like-named read-outs stand apart in the source and are kept apart here.
# Assays:
# [1] = target: T1, adenosine A2b receptor (Homo sapiens, UniProt P29275); assay: Adenosine agonism indirectly by gene expression (luciferase, cAMP-dependent promoter) in transfected CHO cells, A2b; type: cell-based; conditions: read-out: Stimulation of adenosine A2b receptor (% of the maximum stimulation achieved by NECA)
# T1 construct: expressed in transfected cells; host or cells: CHO (Chinese Hamster Ovary)
# T1 sequence (P29275 1-332): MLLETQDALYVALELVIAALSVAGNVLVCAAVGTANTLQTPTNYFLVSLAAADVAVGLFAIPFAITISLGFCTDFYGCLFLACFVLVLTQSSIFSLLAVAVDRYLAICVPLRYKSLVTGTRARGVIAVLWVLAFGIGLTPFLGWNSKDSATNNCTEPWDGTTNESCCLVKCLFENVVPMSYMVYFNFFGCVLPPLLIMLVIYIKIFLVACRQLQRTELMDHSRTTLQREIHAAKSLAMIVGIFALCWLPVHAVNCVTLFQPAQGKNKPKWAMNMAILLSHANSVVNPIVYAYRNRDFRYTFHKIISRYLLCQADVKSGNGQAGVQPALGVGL
# From the text: (§1) Cells of the CHO (Chinese Hamster Ovary) permanent cell line are transfected stably with the cDNA for the adenosine receptor subtypes A1, A2a and A2b. The adenosine A1 receptors are coupled to the adenylate cyclase by way of Gi proteins, while the adenosine A2a and A2b receptors are coupled by way of Gs proteins. In correspondence with this, the formation of cAMP in the cell is inhibited or stimulated, respectively. After that, expression of the luciferase is modulated by way of a cAMP-dependent promoter. The luciferase test is optimized, with the aim of high sensitivity and reproducibility, low variance and good suitability for implementation on a robot system, by varying several test parameters, such as cell density, duration of the growth phase and the test incubation, forskolin concentration and medium composition. The following test protocol is used for pharmacologically characterizing cells and for the robot-assisted substance test screening.
# (§2) The stock cultures are grown, at 37° C. and under 5% CO2, in DMEM/F12 medium containing 10% FCS (foetal calf serum) and in each case split 1:10 after 2–3 days. The test cultures are seeded in 384-well plates at the rate of from 1 000 to 3 000 cells per well and grown at 37° C. for approx. 48 hours. The medium is then replaced with a physiological sodium chloride solution (130 mM sodium chloride, 5 mM potassium chloride, 2 mM calcium chloride, 20 mM HEPES, 1 mM magnesium chloride 6H2O, 5 mM NaHCO3, pH 7.4). The substances, which are dissolved in DMSO, are diluted 1:10 three times with this physiological sodium chloride solution and pipetted into the test cultures (maximum final concentration of DMSO in the test mixture: 0.5%). In this way, final substance concentrations of, for example, from 5 μM to 5 nM are obtained. 10 minutes later, forskolin is added to the A1 cells and all the cultures are subsequently incubated at 37° C. for four hours. After that, 35 μl of a solution which is composed of 50% lysis reagent (30 mM disodium hydrogenphosphate, 10% glycerol, 3% TritonX100, 25 mM TrisHCl, 2 mM dithiothreitol (DTT), pH 7.8) and 50% luciferase substrate solution (2.5 mM ATP, 0.5 mM luciferin, 0.1 mM coenzyme A, 10 mM tricine, 1.35 mM magnesium sulphate, 15 mM DTT, pH 7.8) are added to the test cultures, the plates are shaken for approx. 1 minute and the luciferase activity is measured using a camera system.
# (§3) The table gives the % values of the corresponding reference stimulus. The measured values for the A2a and A2b receptors are values in per cent of the maximum stimulation achieved by NECA; the measured values for the A1 receptor are values in per cent following direct prestimulation of the adenylate cyclase with 1 μmolar forskolin (corresponds to the 100% value).
# [2] = tested on: heart; assay: Cardiovascular effect: heart rate of isolated rat heart in Langerdorff apparatus; conditions: isolated perfused rat heart
# Protocol: After the thorax has been opened, the heart is rapidly removed from anaesthetized rats and introduced into a conventional Langerdorff apparatus. The coronary arteries are perfused at constant volume (10 ml/min), and the resulting perfusion pressure is recorded by way of an appropriate pressure sensor. In this set-up, a decrease in the perfusion pressure corresponds to a relaxation of the coronary arteries. At the same time, the pressure which the heart develops during each contraction is measured by way of a balloon, which has been introduced into the left ventricle, and a second pressure sensor. The frequency of the heart, which is beating in isolation, is calculated from the number of contractions per time unit.
# In this experimental set-up, the following values were obtained for the reduction in heart rate (the stated percentage refers to the reduction of the heart rate in per cent at the concentration in question): […]
# [3] = Pharmacokinetic investigation, oral bioavailability in mice; type: in vivo; conditions: plasma, Mouse, read-out: Bioavailability following oral administration
# Protocol: (§4) Pharmacokinetic data were determined after administering various substances i.v. or p.o. as solutions to mice, rats and dogs. For this, blood samples were collected up to 24 hours after administration. The concentrations of the unaltered substance were determined by bioanalytical methods (HPLC or HPLC-MS) in the plasma samples which were obtained from the blood samples. Pharmacokinetic parameters were subsequently ascertained from the plasma concentration time courses which had been obtained in this way. The following Table 2 gives the bioavailability in the different species.
# [4] = target: T2, adenosine A1 receptor (Homo sapiens, UniProt P30542); assay: Adenosine agonism indirectly by gene expression (luciferase, cAMP-dependent promoter) in transfected CHO cells, A1; type: cell-based; conditions: 1 μmolar forskolin = 100%, agonists give less than 100%
# T2 construct: expressed in transfected cells; host or cells: CHO (Chinese Hamster Ovary)
# T2 sequence (P30542 1-326): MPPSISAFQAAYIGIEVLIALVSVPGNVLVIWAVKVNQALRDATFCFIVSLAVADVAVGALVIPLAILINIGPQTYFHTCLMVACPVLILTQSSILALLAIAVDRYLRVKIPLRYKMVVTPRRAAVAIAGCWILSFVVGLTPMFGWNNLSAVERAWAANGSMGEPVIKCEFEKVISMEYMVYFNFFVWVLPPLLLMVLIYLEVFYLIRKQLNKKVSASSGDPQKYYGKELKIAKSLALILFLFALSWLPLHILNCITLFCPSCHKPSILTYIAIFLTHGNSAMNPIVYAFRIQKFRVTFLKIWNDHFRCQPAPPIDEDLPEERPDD
# From the text: as §1, §2, §3
# [5] = Pharmacokinetic investigation, oral bioavailability in dogs; type: in vivo; conditions: plasma, Dog, read-out: Bioavailability following oral administration
# Protocol: as §4
# [6] = target: T3, adenosine A2a receptor (Homo sapiens, UniProt P29274); assay: Adenosine agonism indirectly by gene expression (luciferase, cAMP-dependent promoter) in transfected CHO cells, A2a; type: cell-based; conditions: read-out: Stimulation of adenosine A2a receptor (% of the maximum stimulation achieved by NECA)
# T3 construct: expressed in transfected cells; host or cells: CHO (Chinese Hamster Ovary)
# From the text: as §1, §2, §3
# [7] = Pharmacokinetic investigation, oral bioavailability in rats; type: in vivo; conditions: plasma, Rat, at 3 mg/kg p.o., read-out: Bioavailability following oral administration
# Protocol: as §4
# [8] = at a concentration of 10^−6 g/ml
# [9] = at a concentration of 10^−7 g/ml
# T3 sequence (P29274 whole entry): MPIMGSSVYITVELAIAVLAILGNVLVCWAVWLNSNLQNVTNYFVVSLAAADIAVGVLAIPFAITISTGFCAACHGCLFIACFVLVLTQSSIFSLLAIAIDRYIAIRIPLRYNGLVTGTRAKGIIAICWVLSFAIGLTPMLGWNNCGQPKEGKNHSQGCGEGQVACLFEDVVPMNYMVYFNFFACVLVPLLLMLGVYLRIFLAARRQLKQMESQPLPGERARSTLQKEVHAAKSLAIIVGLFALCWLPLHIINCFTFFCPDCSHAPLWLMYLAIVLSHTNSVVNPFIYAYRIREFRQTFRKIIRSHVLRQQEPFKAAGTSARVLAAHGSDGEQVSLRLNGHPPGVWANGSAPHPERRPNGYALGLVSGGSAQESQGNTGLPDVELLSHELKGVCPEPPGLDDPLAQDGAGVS
bioavailability ([3]; at 1 mg/kg p.o.) [%],bioavailability ([5]; at 3 mg/kg p.o.) [%],Structure (SMILES),Emax ([1]; 0.3 nmol) [%],Emax ([1]; 1 nmol) [%],Emax ([1]; 10 nmol) [%],"Reduction of the heart rate in percent [2, 8] [%]","Reduction of the heart rate in percent [2, 9] [%]",Stimulation of adenosine A1 receptor (luciferase activity in % of forskolin prestimulation) ([4]; 0.3 nmol) [%],Stimulation of adenosine A1 receptor (luciferase activity in % of forskolin prestimulation) ([4]; 1 nmol) [%],Stimulation of adenosine A1 receptor (luciferase activity in % of forskolin prestimulation) ([4]; 10 nmol) [%],Emax ([6]; 0.3 nmol) [%],Emax ([6]; 1 nmol) [%],Emax ([6]; 10 nmol) [%],bioavailability [7] [%],bioavailability ([3]; at 3 mg/kg p.o.) [%],bioavailability ([5]; at 1 mg/kg p.o.) [%]
31.5,32.6,"COCCOc1ccc(-c2c(C#N)c(N)nc(SCc3cccnc3)c2C#N)cc1 [Example 1, 2-Amino-4-[4-(2-methoxyethoxy)phenyl]-6-[(3-pyridinylmethyl)sulphanyl]pyridine-3,5-dicarbonitrile]",2,6,8,17.5,15.0,56,11,4,-1,2,-2,5,,
,,"N#Cc1c(N)nc(SCc2csc(-c3ccc(Cl)cc3)n2)c(C#N)c1-c1ccc(OCCO)cc1 [Example 6, 2-Amino-6-({[2-(4-chlorophenyl)-1,3-thiazol-4-yl]methyl}sulphanyl)-4-[4-(2-hydroxyethoxy)phenyl]pyridine-3,5-dicarbonitrile]",0,3,29,20.0,15.5,45,25,7,0,4,2,42.3,41.3,28.5
